Assay results from patent US20050031597A1, “Cells and improved method for preserving cells” (priority 2003, published 2005).

Test system: erythrocytic cells
Test: Hemolysis / survival of freeze-dried and rehydrated erythrocytic cells

| Compound | hemolysis after freeze-drying and rehydration (FIG. 22 [T+αC]+5 min+Zn: α-crystallin 1.2 mg/ml loading, 5 min pre-hydration, 500 μM ZnSO4 in rehydration buffer) [%] | cell survival (α-crystallin, 5 min pre-hydration and 500 μM ZnSO4 combined) [%] | cell survival after rehydration (1.2 mg/ml α-crystallin in loading plus 0.5 mg/ml α-crystallin in rehydration buffer) | hemolysis after freeze-drying and rehydration (FIG. 22 [T+αC]+5 min: α-crystallin 1.2 mg/ml in loading buffer, pre-hydrated 37° C. 5 min) [%] | percent hemolysis after freeze-drying and direct rehydration (loaded in 800 mM trehalose, 100 mOsm ADSOL, 6.6 mM Na-phosphate and 1.2 mg/ml α-crystallin (FIG. 21)) [%] |
| --- | --- | --- | --- | --- | --- |
| O=S(=O)([O-])[O-].[Zn+2] [ZnSO4] | 38 | 62 |  |  |  |
| α-crystallin: member of the small heat shock protein family |  |  | does not result in higher cell survival | 47 | 49 |
